# From US7064141B1, “Method for preventing, treating or inhibiting development of simple retinopathy and preproliferative retinopathy” (Takeda Pharmaceutical Company Limited, priority 1999, dated 2006)
# How the values were obtained:
# Diabetic Rats = assay: Retinal potential: latency of oscillatory potential peaks of diabetic rats; assay type: in vivo, rat; conditions: STZ-diabetic SHRSP rats
# Protocol: (§1) • Compound 1: (±)-1-(cyclohexyloxycarbonyloxy) ethyl-2-ethoxy-1-[[2′-(1H-tetrazol-5-yl)biphenyl-4-yl]methyl]-1H-benzimidazole-7-carboxylate (Compound 1) Method: Streptozotocin (STZ) was intravenously injected at a dose of 30 mg/kg to 10-week old male rats (Stroke-Prone Spontaneously Hypertensive Rat:SHRSP). When 9 weeks had passed since the injection of STZ, the blood sugar values of the rats were measured. The rats were divided into 3 groups, that is, a group before the administration, a solvent-administered control group and an administered group with the compound 1 (3 mg/kg/day, p.o.). Four weeks after, the blood sugar values and the retinal potentials were measured, and then, the rats were killed by bleeding by discission of the aorta abdominalis under deep ether anesthetization so as to remove the eyeball. A suspension of the compound 1 in a 0.5% methylcellulose-containing physiological saline was orally administered to the rats once a day for 4 weeks. On the other hand, 23-week old SHRSP rats were used as an untreated group.
# The retinal potential was measured by the following method. The subject animal was subjected to dark adaptation in a dark room for 90 to 120 minutes, and then, anesthetized with ketamine hydrochloride (50 mg/kg, i.m.) and immobilized with xylazine (2 mg/kg, i.m.). The limb and the head of the subject animal were fixed with a string. Mydriatic was dropped on the left eyeball to widen the pupil, and a contact lens type electrode was placed on the cornea using a contact lens-wearing auxiliary. A xenon lamp (1.2 joules) was set at a position 10 cm distant in the forward direction from the eye to be tested (the left eye), and light stimuli were controlled by a light stimulator (SLS-3100 manufactured by Nippon Koden K.K.). The retinal potential generated by light stimuli (0.5 Hz, 16 times) was amplified by a Neuropack (MEB-5100 manufactured by Nippon Koden K.K., Low cut 0.5 Hz, and sweeping time: 200 msec). The results were added and averaged. The latency of oscillatory potential peaks (O1, O2 and O3) was counted from the resultant waveforms.
# Retinal VEGF mRNA = Retinal VEGF mRNA of diabetic rats, semi-quantitative RT-PCR; assay type: in vivo, rat; conditions: STZ-diabetic SHRSP rats
# Protocol: as §1, with “On the other hand, 23-week old SHRSP rats were used as an untreated group.” left out
# VEGF mRNA in the retina was quantitatively determined as follows. […] The quantity of VEGF mRNA was measured from the extracted RNA by the semi-quantitative RT-PCR process (ABI PRISM 7700: Perkin Elmer) using two kinds of fluorescent probes (FAM: VEGF, and VIC: β-action). The quantity of VEGF mRNA was corrected by the quantity of β-action mRNA and calculated provided that the quantity of VEGF mRNA of SD rat retina was defined as 1.
# [1] = 3 mg/kg/day p.o. for 4 weeks, n = 4, average ± standard deviation
smiles,measurement,setting,value
"CCOc1nc2cccc(C(=O)OC(C)OC(=O)OC3CCCCC3)c2n1Cc1ccc(-c2ccccc2-c2nnn[nH]2)cc1 (racemic) [Compound 1, (±)-1-(cyclohexyloxycarbonyloxy) ethyl-2-ethoxy-1-[[2′-(1H-tetrazol-5-yl)biphenyl-4-yl]methyl]-1H-benzimidazole-7-carboxylate]",Latency of oscillatory potential peak O1,Diabetic Rats; [1],23.81 ± 0.42 ms
same,Latency of oscillatory potential peak O2,Diabetic Rats; [1],32.88 ± 1.17 ms
same,Latency of oscillatory potential peak O3,Diabetic Rats; [1],43.39 ± 1.86 ms
same,"Latency of oscillatory potential peaks O1, O2 and O3, in words","Diabetic Rats; 3 mg/kg/day p.o., 4 weeks","latency was reduced in any of the O1, O2 and O3"
same,"Latency of oscillatory potential peak O1 compared with the control group, in words","Diabetic Rats; 3 mg/kg/day p.o., 4 weeks, Dunnett's t Test",significant improvement
same,Retinal VEGF mRNA (VEGF mRNA of SD rat determined as 1),"Retinal VEGF mRNA; 3 mg/kg/day p.o. for 4 weeks, n = 4, corrected by β-action mRNA, average ± standard deviation",0.99 ± 0.14
same,"Quantity of VEGF mRNA in the retinal tissue, in words","Retinal VEGF mRNA; 3 mg/kg/day p.o., 4 weeks",significantly decreased
